Test results published in US10870647B2, “Imidazopyridine derivative, method for preparing same, and pharmaceutical composition containing same as active ingredient for preventing or treating cancer” (DAEGU-GYEONGBUK MEDICAL INNOVATION FOUNDATION, priority 2016, dated 2020).

Key:
Assay in all cases: Kinase selectivity, scanMAX Kinase assay panel (DiscoverX), % control at 1 uM
Assay type in all cases: binding
[1] = target: T1, scanMAX Kinase assay panel (Homo sapiens, UniProt Q8IY84); conditions: NIM1; 1 uM; read-out: Percent Control (%)
T1 construct: purchased DiscoverX
T1 sequence (Q8IY84 whole entry): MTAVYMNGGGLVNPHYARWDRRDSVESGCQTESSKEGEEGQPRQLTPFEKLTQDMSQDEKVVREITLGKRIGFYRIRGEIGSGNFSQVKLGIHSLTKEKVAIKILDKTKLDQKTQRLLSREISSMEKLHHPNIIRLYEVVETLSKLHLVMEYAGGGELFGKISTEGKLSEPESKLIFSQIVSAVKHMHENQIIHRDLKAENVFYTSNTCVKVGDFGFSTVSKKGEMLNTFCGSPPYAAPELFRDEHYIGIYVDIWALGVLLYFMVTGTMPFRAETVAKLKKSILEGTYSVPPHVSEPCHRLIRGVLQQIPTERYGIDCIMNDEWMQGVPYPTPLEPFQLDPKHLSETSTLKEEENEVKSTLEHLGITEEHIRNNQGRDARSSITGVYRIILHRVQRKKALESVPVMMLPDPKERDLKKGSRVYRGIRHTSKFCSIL
Outline: (§1)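 Compounds were tested at 1 uM in DMSO against each enzyme in the panel. Percent control was calculated as (compound − positive control)/(negative control − positive control) × 100, and a compound was scored active on a kinase when this value fell below 35.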

[2] = target: T2, scanMAX Kinase assay panel (Homo sapiens, UniProt P31751); conditions: AKT2; 1 uM; read-out: Percent Control (%)
T2 construct: purchased DiscoverX
T2 sequence (P31751 whole entry): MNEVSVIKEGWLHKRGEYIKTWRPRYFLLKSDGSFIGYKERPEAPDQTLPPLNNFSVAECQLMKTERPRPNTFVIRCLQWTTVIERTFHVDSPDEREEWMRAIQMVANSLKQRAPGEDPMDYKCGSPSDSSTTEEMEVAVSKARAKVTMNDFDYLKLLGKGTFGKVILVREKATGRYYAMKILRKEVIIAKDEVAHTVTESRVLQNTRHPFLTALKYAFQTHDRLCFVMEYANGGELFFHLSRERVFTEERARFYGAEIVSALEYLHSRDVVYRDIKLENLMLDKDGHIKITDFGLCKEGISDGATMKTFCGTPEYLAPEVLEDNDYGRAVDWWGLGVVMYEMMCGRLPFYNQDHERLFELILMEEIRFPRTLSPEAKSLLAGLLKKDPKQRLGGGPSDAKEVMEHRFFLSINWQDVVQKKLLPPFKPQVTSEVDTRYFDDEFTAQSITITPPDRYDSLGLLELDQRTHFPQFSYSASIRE
Outline: as §1

[3] = target: T3, scanMAX Kinase assay panel (Homo sapiens, UniProt Q07912); conditions: TNK2; 1 uM; read-out: Percent Control (%)
T3 construct: purchased DiscoverX
T3 sequence (Q07912 whole entry): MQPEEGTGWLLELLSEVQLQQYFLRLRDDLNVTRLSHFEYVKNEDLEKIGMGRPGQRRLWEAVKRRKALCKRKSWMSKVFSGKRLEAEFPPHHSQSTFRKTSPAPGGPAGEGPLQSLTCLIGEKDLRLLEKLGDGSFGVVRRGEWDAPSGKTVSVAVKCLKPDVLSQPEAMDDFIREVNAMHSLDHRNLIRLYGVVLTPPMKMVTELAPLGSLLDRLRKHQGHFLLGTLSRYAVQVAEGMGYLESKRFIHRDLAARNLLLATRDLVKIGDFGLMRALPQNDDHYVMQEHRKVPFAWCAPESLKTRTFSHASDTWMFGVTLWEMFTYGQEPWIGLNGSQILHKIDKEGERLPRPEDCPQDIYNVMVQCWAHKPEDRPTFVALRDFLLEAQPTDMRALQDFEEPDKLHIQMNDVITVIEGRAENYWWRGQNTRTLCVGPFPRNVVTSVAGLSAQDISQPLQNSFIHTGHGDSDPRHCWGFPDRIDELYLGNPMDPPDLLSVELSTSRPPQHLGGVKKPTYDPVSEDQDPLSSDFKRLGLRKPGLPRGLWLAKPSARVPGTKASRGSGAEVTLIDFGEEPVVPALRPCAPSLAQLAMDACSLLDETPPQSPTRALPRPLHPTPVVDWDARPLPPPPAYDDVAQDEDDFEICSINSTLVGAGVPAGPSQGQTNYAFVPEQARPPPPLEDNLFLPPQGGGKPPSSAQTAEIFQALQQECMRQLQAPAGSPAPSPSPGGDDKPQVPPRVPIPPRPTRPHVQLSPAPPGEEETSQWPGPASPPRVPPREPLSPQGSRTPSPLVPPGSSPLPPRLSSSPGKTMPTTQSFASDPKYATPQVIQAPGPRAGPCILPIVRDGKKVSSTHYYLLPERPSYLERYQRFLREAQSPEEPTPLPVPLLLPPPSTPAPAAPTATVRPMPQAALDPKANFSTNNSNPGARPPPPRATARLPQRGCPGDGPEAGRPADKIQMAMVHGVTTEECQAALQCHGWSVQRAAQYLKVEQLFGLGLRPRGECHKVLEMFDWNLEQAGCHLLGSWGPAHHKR
Outline: as §1

[4] = target: T4, scanMAX Kinase assay panel (Homo sapiens, UniProt Q9UEE5); conditions: DRAK1; 1 uM; read-out: Percent Control (%)
T4 construct: purchased DiscoverX
T4 sequence (Q9UEE5 1-414): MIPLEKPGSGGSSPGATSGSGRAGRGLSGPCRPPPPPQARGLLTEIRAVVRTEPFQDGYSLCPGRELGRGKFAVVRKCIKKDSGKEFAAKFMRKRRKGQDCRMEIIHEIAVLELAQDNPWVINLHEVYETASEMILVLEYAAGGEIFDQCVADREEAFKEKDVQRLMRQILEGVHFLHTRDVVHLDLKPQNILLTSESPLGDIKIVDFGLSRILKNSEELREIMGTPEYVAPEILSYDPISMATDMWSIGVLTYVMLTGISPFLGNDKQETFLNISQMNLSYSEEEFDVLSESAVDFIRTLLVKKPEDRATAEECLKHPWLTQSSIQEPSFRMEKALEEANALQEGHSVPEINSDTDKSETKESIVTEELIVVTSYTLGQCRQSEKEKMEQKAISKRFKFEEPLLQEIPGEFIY
Outline: as §1

[5] = target: T5, scanMAX Kinase assay panel (Homo sapiens, UniProt Q6ZN16); conditions: MAP3K15; 1 uM; read-out: Percent Control (%)
T5 construct: purchased DiscoverX
T5 sequence (Q6ZN16 1-1313): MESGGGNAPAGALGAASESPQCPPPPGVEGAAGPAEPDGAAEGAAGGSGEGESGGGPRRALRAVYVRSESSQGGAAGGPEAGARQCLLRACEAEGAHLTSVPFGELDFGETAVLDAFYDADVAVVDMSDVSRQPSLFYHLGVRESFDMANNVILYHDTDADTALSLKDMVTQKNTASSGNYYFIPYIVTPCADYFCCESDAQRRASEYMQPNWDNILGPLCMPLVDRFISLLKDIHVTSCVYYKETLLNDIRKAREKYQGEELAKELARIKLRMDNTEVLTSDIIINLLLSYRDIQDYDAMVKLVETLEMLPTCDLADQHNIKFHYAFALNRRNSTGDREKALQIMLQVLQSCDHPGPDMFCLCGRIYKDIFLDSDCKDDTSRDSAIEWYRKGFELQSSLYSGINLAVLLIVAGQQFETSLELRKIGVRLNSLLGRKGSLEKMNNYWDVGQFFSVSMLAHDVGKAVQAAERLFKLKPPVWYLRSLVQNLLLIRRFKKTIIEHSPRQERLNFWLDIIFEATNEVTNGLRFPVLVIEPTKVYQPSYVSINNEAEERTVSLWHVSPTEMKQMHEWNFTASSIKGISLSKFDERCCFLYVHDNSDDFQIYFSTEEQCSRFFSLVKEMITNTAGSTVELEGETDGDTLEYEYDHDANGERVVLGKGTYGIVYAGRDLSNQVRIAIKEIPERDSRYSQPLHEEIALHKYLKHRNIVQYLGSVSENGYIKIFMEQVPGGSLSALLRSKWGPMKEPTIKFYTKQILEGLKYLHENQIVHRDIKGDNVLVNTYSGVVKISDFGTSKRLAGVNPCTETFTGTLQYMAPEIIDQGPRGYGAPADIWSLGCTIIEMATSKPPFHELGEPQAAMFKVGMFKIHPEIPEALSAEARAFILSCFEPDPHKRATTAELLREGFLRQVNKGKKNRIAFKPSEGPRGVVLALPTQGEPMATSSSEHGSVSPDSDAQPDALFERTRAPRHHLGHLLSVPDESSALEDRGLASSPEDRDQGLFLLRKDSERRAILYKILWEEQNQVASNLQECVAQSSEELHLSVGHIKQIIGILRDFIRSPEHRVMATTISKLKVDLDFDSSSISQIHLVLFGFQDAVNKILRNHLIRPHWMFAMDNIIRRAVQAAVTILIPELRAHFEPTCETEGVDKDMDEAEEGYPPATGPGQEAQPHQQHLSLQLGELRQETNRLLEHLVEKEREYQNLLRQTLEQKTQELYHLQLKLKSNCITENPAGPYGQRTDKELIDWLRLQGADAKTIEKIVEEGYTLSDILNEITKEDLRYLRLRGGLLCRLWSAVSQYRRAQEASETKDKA
Outline: as §1

[6] = target: T6, scanMAX Kinase assay panel (Homo sapiens, UniProt P0C264); conditions: SgK110; 1 uM; read-out: Percent Control (%)
T6 construct: purchased DiscoverX
T6 sequence (P0C264 1-359): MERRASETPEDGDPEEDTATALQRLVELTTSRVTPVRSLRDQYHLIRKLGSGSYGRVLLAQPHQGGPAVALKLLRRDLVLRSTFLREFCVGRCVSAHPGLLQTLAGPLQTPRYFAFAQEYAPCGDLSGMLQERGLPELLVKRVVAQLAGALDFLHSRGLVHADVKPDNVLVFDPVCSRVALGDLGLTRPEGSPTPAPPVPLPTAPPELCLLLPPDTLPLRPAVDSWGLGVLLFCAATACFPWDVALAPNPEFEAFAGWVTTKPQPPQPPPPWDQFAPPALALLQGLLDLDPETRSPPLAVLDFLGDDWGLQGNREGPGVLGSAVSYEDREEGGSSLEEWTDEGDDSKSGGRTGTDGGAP
Outline: as §1

Row | Structure (SMILES) | remaining binding at 1 µM [1] [%] | remaining binding at 1 µM [2] [%] | remaining binding at 1 µM [3] [%] | remaining binding at 1 µM [4] [%] | remaining binding at 1 µM [5] [%] | remaining binding at 1 µM [6] [%]
1 | Cc1ccc(C(=O)Nc2ccc(CN3CCN(C)CC3)c(C(F)(F)F)c2)cc1C#Cc1cnc2c(Nc3cnn(C)c3)cccn12 [Example 1, 4-methyl-3-((8-((1-methyl-1H-pyrazol-4-yl)amino)imidazo[1,2-a]pyridin-3-yl)ethynyl)-N-(4-((4-methylpiperazin-1-yl)methyl)-3-(trifluoromethyl)phenyl)benzamide] | 92 | 37 | 2 | 98 | 72 | 95
2 | Cc1cn(-c2cc(NC(=O)c3ccc(C)c(C#Cc4cnc5c(Nc6cnn(C)c6)cccn45)c3)cc(C(F)(F)F)c2)cn1 [Example 12, 4-methyl-N-(3-(4-methyl-1H-imidazol-1-yl)-5-(trifluoromethyl)phenyl)-3-((8-((1-methyl-1H-pyrazol-4-yl)amino)imidazo[1,2-a]pyridin-3-yl)ethynyl)benzamide] | 100 | 82 | 28 | 100 | 100 | 81
3 | Cc1ccc(NC(=O)C2(C(=O)Nc3ccc(F)cc3)CC2)cc1C#Cc1cnc2c(Nc3cnn(C(C)C)c3)cccn12 [Example 78] | 100 | 99 | 100 | 100 | 98 | 100
